± gives the expanded uncertainty stated by the source.
Settings: Transpiration method

SMILES: Cc1cccc([N+](=O)[O-])c1 [3-nitrotoluene]
- vapor or sublimation pressure (283.15 K, Crystal): 0.00339 ± 0.00049 kPa
- vapor or sublimation pressure (293.15 K, Liquid): 0.00855 ± 0.0012 kPa
- vapor or sublimation pressure (303.15 K, Liquid): 0.0195 ± 0.0028 kPa
- vapor or sublimation pressure (313.15 K, Liquid): 0.0378 ± 0.0055 kPa

SMILES: Cc1ccc([N+](=O)[O-])cc1 [1-methyl-4-nitrobenzene]
- vapor or sublimation pressure (283.15 K, Crystal): 0.00125 ± 0.00018 kPa
- vapor or sublimation pressure (293.15 K, Crystal): 0.00379 ± 0.00055 kPa
- vapor or sublimation pressure (303.15 K, Crystal): 0.0102 ± 0.0015 kPa
- vapor or sublimation pressure (313.15 K, Crystal): 0.0264 ± 0.0038 kPa

SMILES: Cc1ccccc1[N+](=O)[O-] [2-nitrotoluene]
- vapor or sublimation pressure (283.15 K, Liquid): 0.00553 ± 0.0008 kPa
- vapor or sublimation pressure (293.15 K, Liquid): 0.0127 ± 0.0018 kPa
- vapor or sublimation pressure (303.15 K, Liquid): 0.0297 ± 0.0043 kPa
- vapor or sublimation pressure (313.15 K, Liquid): 0.0611 ± 0.0088 kPa

SMILES: CCCCCCCCCCCCCC [tetradecane]
- vapor or sublimation pressure (283.15 K, Liquid): 0.000427 ± 1.7e-05 kPa
- vapor or sublimation pressure (293.15 K, Liquid): 0.00121 ± 5e-05 kPa
- vapor or sublimation pressure (303.15 K, Liquid): 0.00322 ± 0.00013 kPa
- vapor or sublimation pressure (313.15 K, Liquid): 0.0081 ± 0.00031 kPa

— the NIST ThermoML archive (doi:10.1021/je900293j)
